Source: US20210386668A1, “Cyclodextrin for use in the treatment and prevention of late phase bronchoconstriction in allergen-induced asthma” (Universite de Liege, priority 2020, published 2021)

Tested on: healthy subjects
Assay: Phase 1 clinical trial, single and multiple HPBCD inhalation
Format: in vivo, human
Excerpt: Clinical trial protocols have been approved by an independent ethical committee (CHU Liege—University of Liege) in accordance with GCPs, Declaration of Helsinki and European regulations (EudraCT). All participants gave written informed consent before any study-specific procedure. For the phase 1 clinical trial, 8 healthy subjects (4 women and 4 men) from 18 to 40 years were recruited and enrolled in the study at the University Hospital of Liege (Belgium). Patients were randomized and received first the placebo (NaCl 0.9%) or HPBCD at 2.5 mM and 8 days after, the opposite treatment. After 1 week, all patients received HPBCD at 15 mM. One month later, all patients received HPBCD at 15 mM during 5 consecutive days. Apyrogenic and sterile HPBCD powder was diluted with NaCl 0.9% before inhalation (8 ml) with an ultrasonic nebulizer (Devilbiss 2000). General symptoms, asthma scores (ACQ), dyspnea, chest Rx, clinical biology, ECG, vital signs, spirometry, NO, sputum (induced by NaCl 4.5%) were analyzed after treatment periods. The second clinical trial (phase 2a-proof of concept) was a double-blinded, cross-over, placebo-controlled study. 17 mild to moderate asthmatic patients were included in the study at two different sites (University Hospital of Liege and University Hospital Erasme) in Belgium. Characterization visits consisted of dyspnea symptoms recording, ECG, chest Rx, clinical biology, spirometry and vital signs analysis. PD20 (provocative dose that causes a 20% fall in FEV1 from the saline alone value) to inhaled allergen was determined. […] The PD20 of the allergen was calculated from a cumulative dose-response curve, as described previously, Cataldo et al., Matrix metalloproteinase-9, but not tissue inhibitor of matrix metalloproteinase-1, increases in the sputum from allergic asthmatic patients after allergen challenge, Chest. 2002; 122(5):1553-9. All […] received a cumulative concentration of Dermatophagoides pteronyssinus with a reactivity index of 6. After 14 days wash-out period, patients were randomly divided into two groups and received either HPBCD 15 mM or Placebo (NaCl 0.9%) by inhalation (ultrasonic nebulizer (Devilbiss 2000)) twice daily. At the end of this treatment period, lung function (FEV1) was analyzed after allergen (HDM) challenge under the supervision of experienced respiratory clinical physiologists. FEV1 was measured after allergen inhalation challenge at 5, 15, 30, 60, 120, 180, 240, 300 and 360 min. After 28 days wash-out period, patients received the opposite treatment for another 14 days and the FEV1 following allergen challenge was evaluated. All clinical parameters were examined after each treatment period. The endpoint of this proof of concept study was changes in FEV1 over 0-360 min post-allergen challenges. FEV1 in early phase (0-60 min) and late phase (180-360 min) were expressed as: area under the FEV1-versus-time curve (AUC), maximum percentage fall and average percentage fall (calculated by dividing the area under the curve of the percentage fall in FEV1 by the duration of the response period). One patient who received placebo had negative maximum FEV1 decrease and negative average percentage fall in FEV1. These negative values were truncated to 0. Patients had access to […] (salbutamol 100 μg) throughout the study as an «as needed» treatment.
Data are presented as mean±SEM unless specified. The differences between mean values were estimated using a two-tailed Mann-Whitney test (animal and in vitro experiments) unless specified. All animal experiments were repeated at least 2 times; n 6 in each experimental group. ANOVA Friedman test (single dose) and Wilcoxon signed rank test (multiple doses) were used to analyze results obtained during the phase 1 clinical trial. One-tailed Wilcoxon matched pairs test was used to evaluate intra-individual differences in the proof of concept clinical trial. A P value less than 0.05 was considered significant. […]

[1] = multiple dose HPBCD 15 mM, after 5 days inhalation
[2] = multiple dose HPBCD 15 mM, after 5 days inhalation, mean ± SD
[3] = single dose, HPBCD 2.5 mM, mean ± SD
[4] = single dose, HPBCD 15 mM, mean ± SD

Question: How did the “Eosinophils (sputum) 5 h after inhalation” value (from here on “Eosinophils (sputum) 5 h”) [1] turn out when CC(O)COC[C@H]1O[C@@H]2O[C@H]3[C@H](O)[C@@H](O)[C@@H](O[C@H]4[C@H](O)[C@@H](O)[C@@H](O[C@H]5[C@H](O)[C@@H](O)[C@@H](O[C@H]6[C@H](O)[C@@H](O)[C@@H](O[C@H]7[C@H](O)[C@@H](O)[C@@H](O[C@H]8[C@H](O)[C@@H](O)[C@@H](O[C@H]1[C@H](O)[C@H]2O)O[C@@H]8COCC(C)O)O[C@@H]7COCC(C)O)O[C@@H]6COCC(C)O)O[C@@H]5COCC(C)O)O[C@@H]4COCC(C)O)O[C@@H]3COCC(C)O (stereo partly drawn) [HPBCD, 2-hydroxypropyl-beta-cyclodextrin] was run?
Answer: 0.00%

Question: What about the QT [1] of the same compound?
Answer: 393.50 ms

Question: And the QtTc [1]?
Answer: 393.30 ms

Question: And the FEV1 15 min after inhalation [2]?
Answer: 4.13 ± 0.87 L

Question: What about the FEV1 1 h after inhalation [2] of the same compound?
Answer: 4.07 ± 0.82 L

Question: What about the FEV1 3 h after inhalation [2] of the same compound?
Answer: 4.11 ± 0.87 L

Question: And the FEV1 5 h after inhalation [2]?
Answer: 4.1 ± 0.87 L

Question: What about the “No measurements (ppb) 15 min after inhalation” value (shortened to “No measurements (ppb) 15 min”) [2] of the same compound?
Answer: 25.16 ± 9.76 ppb

Question: And the “Eosinophils (sputum) 5 h” value [3]?
Answer: 0.00 ± 0.00%

Question: And the FEV1 15 min after inhalation [3]?
Answer: 4.08 ± 0.87 L

Question: What about the FEV1 1 h after inhalation [3] of the same compound?
Answer: 4.11 ± 0.83 L

Question: And the FEV1 3 h after inhalation [3]?
Answer: 4.1 ± 0.82 L

Question: What about the FEV1 5 h after inhalation [3] of the same compound?
Answer: 4.11 ± 0.87 L

Question: And the “No measurements (ppb) 15 min” value (single dose, HPBCD 2.5 mM, mean ± SD, n = 8)?
Answer: 23.85 ± 7.56 ppb

Question: And the “Eosinophils (sputum) 5 h” value [4]?
Answer: 0.20 ± 0.49%

Question: What about the FEV1 15 min after inhalation [4] of the same compound?
Answer: 4.01 ± 0.87 L

Question: What about the FEV1 1 h after inhalation [4] of the same compound?
Answer: 4.04 ± 0.86 L

Question: And the FEV1 3 h after inhalation [4]?
Answer: 4.07 ± 0.85 L

Question: And the FEV1 5 h after inhalation [4]?
Answer: 4.08 ± 0.92 L

Question: What about the “No measurements (ppb) 15 min” value (single dose, HPBCD 15 mM, mean ± SD, n = 8) of the same compound?
Answer: 28.48 ± 17.92 ppb
